Legend:
[1] = system: p53 reporter (PG13-luc) in DLD-1 cells; experiment: luciferase-based p53-reporter activity assay; type: cell-based, human; settings: 3 and 24 hours
Protocol: (§1) High-throughput screening was performed using a non-invasive bioluminescence imaging in human colorectal cancer cell lines that stably express a p53-regulated luciferase reporter. Cells were seeded in 96-well plates (Greiner Bio-One) at a density of 1×10^4 cells per well. p53 transcriptional activity was imaged using an IVIS imaging system for a period of 3-4 hours.
(§2) Cell-based screening of p53 transcriptional activity for small molecule CB002 was accomplished using noninvasive bioluminescence imaging in human colorectal cancer cell lines SW480, DLD-1, DLD-1 p73^−/−, HCT116, and HCT116 p53^−/−. These cell lines stably express a p53 reporter, PG13-luc. Cells were seeded in opaque 96-well culture at a density of 5×10^4 cells/well. The cells were treated with CB002 at ranging doses with DMSO controls. Bioluminescence in cells was imaged for p53 transcriptional activity at 2 hours and 24 hours using IVIS imaging system (Xenogen).
(§3) In order to identify small molecules that could restore the p53 signaling pathway, 50,000 small molecules from the Chembridge Library were screened using a firefly luciferase human p53 reporter assay system. SW480 colorectal cancer cells that stably express the human p53 reporter were treated with compounds at various concentrations from 0-100 μM for 2 and 24 hours. […] To further validate the effects of CB002, the screening was expanded by testing effects on p53-dependent reporter activity in DLD-1, wild-type HCT116, and p53-null colorectal cancer HCT116 cell lines. […] Referring to FIG. 1, representative images of luciferase-based p53-reporter activity assays are shown at 3 hours (Panel A). Quantification of the luciferase-based p53-reporter activity assays in three different cell lines incubated from 3-24 hours with CB002 are shown (Panels B-D). p53-reporter activity assays are shown at 2 hours for HCT116 p53-null cells (Panel E).

[2] = system: p53 reporter (PG13-luc) in HCT116 p53-null cells; experiment: luciferase-based p53-reporter activity assay; type: cell-based, human; settings: 3 and 24 hours
Protocol: as §1, §2, §3

[3] = system: p53 reporter (PG13-luc) in wild-type HCT116 cells; experiment: luciferase-based p53-reporter activity assay; type: cell-based, human; settings: 3 and 24 hours
Protocol: as §1, §2, §3

SW480 cells = experiment: colony formation assay; type: cell-based, human; settings: 50 μM for 24 hours, then 15 days drug-free
Protocol: (§4) Cells were seeded in 6-well plates at a density of 500 cells per well. Cells were treated with CB002 small molecule for 24 hours. Then, cells were cultured in drug-free complete media for 15 days. During the course of 15 days, the media was changed every 2-3 days. At the end of the two weeks, media was removed, wells were washed twice with Dulbecco's phosphate buffered saline (PBS) and the colonies were fixed and stained with 10% methanol and 0.25% crystal violet (Sigma-Aldrich) for 30 minutes. Wells were then carefully washed with distilled and deionized water and allowed to dry.
(§5) To further validate CB002 as a candidate therapeutic, its capability to affect cell growth was determined by analyzing cancer cell colony formation. Colony formation assays are widely used to determine the ability of a single cell to proliferate and form a colony in culture. This method offers the advantage of elucidating the sensitivity of cells towards cytotoxic agents in a long-term assay that may mimic the response seen in mouse models. […] Referring to FIG. 3, cells were treated with 50 μM of CB002 for a period of 24 hours, at which point media was replaced with complete media for a period of 15 days. Images are from one of three replicates.

[4] = system: p73 DLD-1 stable knockdown cells; experiment: colony formation assay; type: cell-based, human; settings: 50 μM for 24 hours, then 15 days drug-free
Protocol: as §4, §5

[5] = target: T1, endogenous R175H p53 in RXF393 renal cancer cells (Homo sapiens, UniProt P04637, R175H); experiment: Western blot of mutant p53; type: cell-based
T1 construct: RXF393 renal cancer cells that endogenously express R175H p53; endogenous in cells; host or cells: RXF393 renal cancer cells
Protocol: After treatment, cells were harvested by trypsinization, washed with PBS, and lysed with RIPA buffer (Sigma-Aldrich) for 30 minutes to 1 hour at 4° C. Protein lysates were spun down and supernatant was collected. Protein quantification was performed using a Pierce™ BCA Protein Assay Kit (Thermo Fisher Scientific). 1×NuPAGE® LDS sample buffer (Thermo Fisher Scientific) and 2-Mercaptoethanol as the reducing agent (Sigma-Aldrich) were added to protein lysates, followed by boiling for 15 minutes at 95° C. Equal total protein amounts samples were loaded into NuPAGE™ Novex™ 4-12% Bis-Tris Protein Gels (1.5 mm, Thermo Fisher Scientific) and gel eletrophoresis was performed with NuPAGE™ MES SDS Running Buffer. Proteins were transferred onto an Immobilon-P membrane (PVDF, EMD Millipore) using a Bio-Rad system with a 10% Tris-Glycine and 10% methanol transfer buffer diluted in distilled and deionized water. After transfer, membranes were blocked with 10% milk in TBST solution and then incubated overnight with primary antibody, washed with TBST and incubated with secondary antibody for 1 hour. Incubations were performed in 5% milk in TBST solution. Signal was detected by using a chemiluminescent detection kit, followed by autoradiography. […]

[6] = target: T2, R175H mutant p53 in HCT116 R175H p53 cells (Homo sapiens, UniProt P04637, R175H); experiment: cycloheximide chase assay; type: cell-based; settings: 100 μM, 24 hours, then cycloheximide
T2 construct: V5 (only from the vector name pLenti6/V5); host or cells: HCT116 p53-/- cells, lentivirus infection, blasticidin-selected pooled clones
Protocol: As mutant p53 can acquire a gain-of-function activity, targeting mutant p53 for degradation has been explored as a therapeutic strategy. To investigate the capability of CB002 to impact on mutant p53 protein expression, Western blot analysis was used. […] To confirm these findings, a cycloheximide chase assay was performed. Cells were treated with vehicle control or CB002 for a period of 24 hours. Subsequently, 100 μg/mL cycloheximide was added to the wells and protein lysates were collected at different time points between 0-10 hours. […] Referring to FIG. 6, experiments with SW480 cells (Panels A and B) and analysis of DLD-1 colorectal cancer cells (Panel C) are shown. Cells were treated for a 24 hour period with DMSO, CB002 or positive control followed by 100 μg/mL of cycloheximide addition, and protein stability was evaluated in a time course ranging from 0-10 hours. Histone deacetylase inhibitor, SAHA and Hsp90 inhibitor Geldanamycin (1 μM GA) were used as positive controls.
Referring to FIG. 7, CB002 reduced the protein expression of the exogenous R175H mutant in HCT116 p53-null cells and not the HCT116 wild-type p53 cells (Panel A). HCT116 R175H p53 cells were treated for 24 hours with DMSO or CB002 followed by 100 μg/mL cycloheximide addition. Protein stability was evaluated from 0-10 hours (Panel B). […]

Cn1c(=O)c2[nH]c(Nc3ccccc3)nc2n(C)c1=O [CB002, 8-anilino-1,3-dimethyl-3,7-dihydro-1H-purine-2,6-dione]
p53 reporter activity [1]: induced in a dose-dependent manner | p53 reporter activity [2]: induced in a dose-dependent manner | p53 reporter activity [3]: induced in a dose-dependent manner | colony formation (SW480 cells): significantly decreases colony formation | colony formation [4]: significantly decreases colony formation | mutant p53 degradation, with Ganetespib ([5]; 96 μM CB002 and/or 0.1 μM Ganetespib, 16 hours): enhanced CB002-mediated mutant p53 degradation | R175H p53 mutant expression ([5]; 100 and 150 μM, 16 and 24 hours): decrease R175H p53 mutant expression | stability of mutant p53 [6]: decreased the stability of mutant p53

Reference: patent US11203598B2, “Compounds for repressing cancer cell growth” (Institute For Cancer Research, priority 2018, dated 2021)
